Laboratory results taken from US11414374B2, “Crystalline forms of vilanterol trifenatate and processes for their preparation” (Hovione Scientia Limited, priority 2017, dated 2022).

Assays:
Assay type in all cases: physicochemical
XRPD after Grinding = conditions: resulting form after grinding
[1] = Stability test (60° C. 75% RH-3 d), form by XRPD; conditions: resulting form
[2] = Stability test (exposed sample 16 h), form by XRPD; conditions: resulting form
[3] = DSC - differential scanning calorimetry; conditions: for DSC (onset) endo. degradation: endothermic event: degradation; for DSC (onset) endo. solvent loss + melting: endothermic event: solvent loss + melting (Form 6: + Form 2 melting; Form 14: + Form 3 melting); for DSC (onset) endo. Form 1 melting: endothermic event: Form 1 melting; for DSC (onset) endo. solvent loss: endothermic event: solvent loss
Experimental: The analysis was carried out using a DSC Q200 TA instruments equipped with a refrigerator cooling system (RCS40) and autosampler. The sample was weighed in an aluminum hermetic pan with pinhole. The analysis was performed heating the sample from 25° C. to 350° C. at 10° C./min.

[4] = TGA / TGA-EGA thermogravimetric analysis with evolved gas analysis; conditions: for EGA: evolved solvent identified; for TGA overall weight loss: overall loss of the named solvent(s)
Experimental: The analysis was carried out using the Mettler Toledo TGA/DSC1. The sample was weighed in an aluminum pan hermetically sealed with an aluminum pierced cover. The analysis was performed heating the sample from 25° C. to 320° C. at 10° C./min. TGA-FTIR coupled with Thermo Nicoled is 10 spectometer. The analysis was carried out using the mettler toledo TGA/DSC1. The sample was weighed in an aluminum pan hermetically sealed with an aluminum pierced cover. The analysis was performed heating the sample from 25° C. to 320° C. at 10° C./min. The evolved gas is compared with ft-ir spectra database for identification.

[5] = Dynamic vapor sorption (DVS) analysis / hygroscopicity (EP 7.0 classification); conditions: for Hygroscopically (DVS): DVS hygroscopicity class; for XRPD after DVS: resulting form after DVS
Experimental: The hygroscopicity value is directly obtained from the sorption row at 80% RH, cycle 1.
Hygroscopicity of a sample of each of new form II and comparative form I was determined using the protocol provided below in conditions of 80% RH and 25° C.
The sample was subjected to DVS measuring using SMS-DVS intrinsic. The kinetic moisture sorption measurement was performed at 25° C. and in a RH % range described in the following: • From 40% RH to 90% RH • Form 90% RH to 0% RH • From 0% RH to 90% RH • From 90% RH to 0% RH
The sample was analyzed by XRPD after the analysis.
The hygroscopicity was calculated using the following equation: % Weight Change=[(W2−W1)/W1]*100 W1: weight of sample at the start of the experiment (25° C. and 40% RH) W2: weight of sample at 25° C. and 80% RH in the first absorption cycle

[6] = Stability test (sealed vial 18 h), form by XRPD; conditions: resulting form
[7] = Storage stability of exposed powder at 25° C. and 60% RH for seven days, compared by XRPD; conditions: 25° C. 60% RH, 7 d, resulting form
Experimental: Approximately 30 mg of exposed powder of comparative form 1 and new forms II and III, respectively, were stored at 25′C and 60% RH for seven days. Each powder was then analyzed by XRPD and its diffraction pattern was compared with that of untreated sample.

## OCc1cc([C@@H](O)CNCCCCCCOCCOCc2c(Cl)cccc2Cl)ccc1O [form X, vilanterol trifenatate]
XRPD after Grinding; listed as Form 10
  XRPD after Grinding: Amorphous
[1]; listed as Form 10
  Stability test (60° C. 75% RH-3 d): Form 1
[2]; listed as Form 10
  Stability test (exposed sample 16 h): Form 10
[3]; listed as Form 10
  DSC (onset) endo. degradation: endo. 188 °C
  DSC (onset) endo. solvent loss + melting: endo. 69 °C solvent
[4]; listed as Form 10
  EGA: Ethanol
[5]; listed as Form 10
  Hygroscopically (DVS): Slightly
  XRPD after DVS: Form 1
[6]; listed as Form 10
  Stability test (sealed vial 18 h): Form 10
[7]; listed as Form 10
  Stability test (25° C. 60% RH-7 d): Form 1

## OCc1cc([C@@H](O)CNCCCCCCOCCOCc2c(Cl)cccc2Cl)ccc1O [form XII, vilanterol trifenatate]
XRPD after Grinding; listed as Form 12
  XRPD after Grinding: Amorphous (few
[1]; listed as Form 12
  Stability test (60° C. 75% RH-3 d): Form 1 (almost
[2]; listed as Form 12
  Stability test (exposed sample 16 h): Form 12
[3]; listed as Form 12
  DSC (onset) endo. Form 1 melting: endo. 134 °C Form 1
  DSC (onset) endo. degradation: endo. 189 °C
  DSC (onset) endo. solvent loss: endo. 21 °C solvent loss
[4]; listed as Form 12
  EGA: Water and 1.2-
  TGA overall weight loss: One loss of 61.6% w/w
[5]; listed as Form 12
  Hygroscopically (DVS): Slightly
  XRPD after DVS: Form 1
[6]; listed as Form 12
  Stability test (sealed vial 18 h): Form 12
[7]; listed as Form 12
  Stability test (25° C. 60% RH-7 d): Form 1 (almost

## OCc1cc([C@@H](O)CNCCCCCCOCCOCc2c(Cl)cccc2Cl)ccc1O [form IX, vilanterol trifenatate]
XRPD after Grinding; listed as Form 9
  XRPD after Grinding: Amorphous
[1]; listed as Form 9
  Stability test (60° C. 75% RH-3 d): Partial conversion
[2]; listed as Form 9
  Stability test (exposed sample 16 h): Form 9
[3]; listed as Form 9
  DSC (onset) endo. degradation: endo. 188 °C
  DSC (onset) endo. solvent loss + melting: endo. 100 °C solvent
  DSC (onset) endo. solvent loss: endo. 68 °C solvent loss
[4]; listed as Form 9
  EGA: Nitromethane
[5]; listed as Form 9
  Hygroscopically (DVS): Slightly
  XRPD after DVS: Low crystallinity
[6]; listed as Form 9
  Stability test (sealed vial 18 h): Form 9
[7]; listed as Form 9
  Stability test (25° C. 60% RH-7 d): Form 9

## OCc1cc([C@@H](O)CNCCCCCCOCCOCc2c(Cl)cccc2Cl)ccc1O [form XI, vilanterol trifenatate]
XRPD after Grinding; listed as Form 11
  XRPD after Grinding: Form 12
[1]; listed as Form 11
  Stability test (60° C. 75% RH-3 d): Form 1 (almost
[2]; listed as Form 11
  Stability test (exposed sample 16 h): Form 11
[3]; listed as Form 11
  DSC (onset) endo. Form 1 melting: endo. 135 °C Form 1
  DSC (onset) endo. degradation: endo. 188.6 °C
  DSC (onset) endo. solvent loss: endo. 50-100 °C solvent loss
[4]; listed as Form 11
  EGA: Cyclohexane and 2-
  TGA overall weight loss: loss of 51% w/w
[5]; listed as Form 11
  Hygroscopically (DVS): Slightly hygroscopic (Increase in mass is less than 2% and equal to or greater than 0.2%)
  XRPD after DVS: Ascribable to Form 11
[6]; listed as Form 11
  Stability test (sealed vial 18 h): Form 11
[7]; listed as Form 11
  Stability test (25° C. 60% RH-7 d): Form 1 (start
